Laboratory results: patent US7705203B2, “Benzoate inductible promoters” (Purdue Research Foundation, priority 2002, dated 2010)
“Also recorded” adds a separate entry of the source.

Experiments:
bzuA = assay: RNA blots of bzuA expression; type: cell-based, A. nidulans; details: benzoic acid in the media
From the text: On the other hand, while N. crassa also contains a bphA homolog, there is no current information available as to its response to benzoic acid.

GAD1 and GAD11 genes = assay: RT-PCR expression of GAD1 and GAD11 genes in response to benzoic acid; type: cell-based, A. niger; details: 8 mM benzoic acid for 5 h
Description: Total RNA was extracted from uninduced and benzoic acid-induced A. niger mycelia as described earlier, and approximately 1 μg was used to synthesize first strand cDNAs with the SuperScript First-strand Synthesis System for RT-PCR (Invitrogen, Carlsbad, Calif.). The reaction was carried out in the presence of 0.5 μg of an oligo(dT) primer, 0.5 mM dNTP mix, 5 mM MgCl2, 10 mM DTT, 1× RT buffer (20 mM Tris.HCl pH 8.4, 50 mM KCl), RNAseOUT™ RNAse inhibitor, and 50 U of SuperScript™ II Reverse Transcriptase. Tubes were incubated at 42° C. for 50 min, after which the reaction was terminated at 70° C. for 15 min. RNAse H was added, and tubes were incubated for an additional 20 min at 37° C. Double-stranded cDNAs were amplified by PCR using Red Taq DNA Polymerase (Sigma-Aldrich, St. Louis, Mo.), dNTP's, and gene specific primers: GAD1F (5′-[…]-3′, SEQ ID NO:30), GAD1R (5′-[…]-3′, SEQ ID NO:31), GAD11F (5′-[…]-3′, SEQ ID NO:32), and GAD11R (5′-[…]-3′, SEQ ID NO:33). PCR amplification consisted of a denaturation step at 94° C. for 5 min, followed by 30 cycles, each of denaturation at 94° C. for 45 sec, annealing at 56° C. for 30 sec, and extension at 72° C. for 1 min. A final extension step at 72° C. for 10 min was also included. Amplified cDNAs were separated on a 0.8% agarose gel containing EtBr, and bands were visualized under UV light.

bphA gene = assay: RNA (Northern) blot of bphA gene transcription in mycelia; type: cell-based, Aspergillus niger
Description: The time course gene expression induction was examined by analyzing total RNA at different times after adding benzoic acid. Northern (RNA) blots were carried out using total RNA extracted from mycelia grown for different periods of time in the presence of benzoic acid. Initially, the fungus was inoculated in CM medium (Pontecorvo (1953) Adv. Genet. 5: 141-238) for 24 hours, transferred to benzoate-containing medium (0.1% w/v) for different times, and total RNA was extracted using the Rneasy Plant Total RNA kit (Qiagen Inc, Valencia, Calif.) according to the manufacturer's instructions. Total RNA was resolved on a formaldehyde-agarose gel and transferred to a Hybond-N nylon membrane (Amersham Life Sci. Inc, Arlington Heights, Ill.). Radiolabeled BPH probe was allowed to hybridize to the membrane, as described above. Northern blot methods were also carried out as recommended (Amersham).
Different benzoate concentrations and inducers were used to better characterize the inducibility of the bphA gene. Gene expression was assayed by Northern blots. Benzoate 4-hydroxylase activity is also assessed by enzymatic assays to confirm the inducibility at the transcriptional level described by Van Gorcom et al. ((1990) Mol. Gen. Genet. 223, 192-197). Inducibility is also verified by reverse transcription of mRNAs produced under induction conditions.
To verify the inducibility of the bphA gene by benzoic acid, A. niger was inoculated in complete medium and grown for 24 hours before being transferred to fresh medium containing 0.1% benzoic acid. Mycelia were harvested after different periods of induction, and total RNA was extracted.

BRE = assay: Activation of BRE fused to GFP in fungal protoplasts (surface receptor test); type: cell-based
Description: While not necessary to understand to practice the invention, a more complicated mechanism of induction may include a surface receptor that binds to benzoate and which then initiates either some kind of signal transduction cascade or the release of a TF that then culminates in the activation of the BPH promoter (FIGS. 12C and D). The hypothesis of a surface receptor was tested by using the p-NH2-benzoate coupled to agarose (as described above) as a non-cleavable external probe. Fungal protoplasts containing the BRE fused to GFP were then prepared, and activation of the BRE (production of the GFP marker) by addition of the agarose-immobilized benzoate derivative to the fungal protoplasts was scored. […] In order to investigate whether the disparity of size between the larger agarose beads and fungal protoplasts may have caused steric problems in binding of the inducer, smaller ligands still incapable of uptake are constructed and utilized to confirm a non-membrane surface location.
The hypothesis of a surface receptor was tested by using the p-NH2-benzoate coupled to agarose (as described above) as a non-cleavable external probe. Fungal protoplasts containing the BRE fused to GFP were then prepared, and activation of the BRE (production of the GFP marker) by addition of the agarose-immobilized benzoate derivative to the fungal protoplasts was scored. […]

Structure (SMILES): O=C(O)c1ccccc1 [benzoic acid]
- expression of bzuA (bzuA): upregulated
- expression of GAD1 (GAD1 and GAD11 genes): expressed constitutively; also recorded: constitutive
- expression of GAD11 (GAD1 and GAD11 genes): slightly downregulated; also recorded: slightly down-regulated
- induction of transcription of the bphA gene (bphA gene; 8 mM inducer, RNA blot (FIG. 4)): induced
- benzoic acid concentrations as low as ... induce transcription of the bphA gene (bphA gene; concentration curves): 0.8 mM
- GFP fluorescence in the BRE-GFP transformed line (BRE): induced GFP fluorescence
